From ChEMBL document CHEMBL1201862, “PubChem BioAssay data set” (2004) come the findings set out here.

SMILES strings stand for the structures. Active and inactive are the calls of the source. Some results are limits rather than exact numbers.

Data set [1] deals with T1, Short transient receptor potential channel 4 (Mus musculus, UniProt Q9QUQ5).
T1 sequence (Q9QUQ5 whole entry): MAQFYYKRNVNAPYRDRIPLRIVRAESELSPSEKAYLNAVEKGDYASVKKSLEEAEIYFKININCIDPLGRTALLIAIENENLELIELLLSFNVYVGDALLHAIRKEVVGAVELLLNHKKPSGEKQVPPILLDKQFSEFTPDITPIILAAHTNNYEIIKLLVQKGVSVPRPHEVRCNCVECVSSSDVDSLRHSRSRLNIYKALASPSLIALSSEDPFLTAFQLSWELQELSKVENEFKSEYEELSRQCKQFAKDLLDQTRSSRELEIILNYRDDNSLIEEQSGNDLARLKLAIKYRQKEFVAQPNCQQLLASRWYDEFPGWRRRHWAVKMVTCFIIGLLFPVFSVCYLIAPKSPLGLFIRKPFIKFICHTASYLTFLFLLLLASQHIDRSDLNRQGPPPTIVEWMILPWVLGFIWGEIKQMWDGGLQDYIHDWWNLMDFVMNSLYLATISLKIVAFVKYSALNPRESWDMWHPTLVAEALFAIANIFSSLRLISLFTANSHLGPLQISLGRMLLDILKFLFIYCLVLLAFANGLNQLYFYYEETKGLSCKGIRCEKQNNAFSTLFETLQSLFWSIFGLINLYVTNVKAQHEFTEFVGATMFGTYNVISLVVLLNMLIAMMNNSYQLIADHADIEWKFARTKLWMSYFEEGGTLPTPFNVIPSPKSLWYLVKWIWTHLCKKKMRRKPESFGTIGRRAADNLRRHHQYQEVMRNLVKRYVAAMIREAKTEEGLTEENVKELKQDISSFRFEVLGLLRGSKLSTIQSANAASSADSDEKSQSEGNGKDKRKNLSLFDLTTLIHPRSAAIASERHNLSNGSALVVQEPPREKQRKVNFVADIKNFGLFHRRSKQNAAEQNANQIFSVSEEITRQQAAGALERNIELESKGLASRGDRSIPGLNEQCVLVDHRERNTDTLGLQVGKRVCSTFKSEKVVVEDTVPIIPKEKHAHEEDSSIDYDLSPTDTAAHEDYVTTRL
Put plainly: mouse TRPC4 channel inhibitors, dose response, cell-based, HEK293 TRPC4/mu-opioid, Fluo-4 calcium (AID 434942).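 Also: potency of inhibitors blocking the TRPC4 calcium response.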 It is filed as functional.

Another data set has as its target T2, Aminopeptidase N (Plasmodium falciparum FcB1/Columbia, UniProt O96935).
T2 sequence (O96935 whole entry): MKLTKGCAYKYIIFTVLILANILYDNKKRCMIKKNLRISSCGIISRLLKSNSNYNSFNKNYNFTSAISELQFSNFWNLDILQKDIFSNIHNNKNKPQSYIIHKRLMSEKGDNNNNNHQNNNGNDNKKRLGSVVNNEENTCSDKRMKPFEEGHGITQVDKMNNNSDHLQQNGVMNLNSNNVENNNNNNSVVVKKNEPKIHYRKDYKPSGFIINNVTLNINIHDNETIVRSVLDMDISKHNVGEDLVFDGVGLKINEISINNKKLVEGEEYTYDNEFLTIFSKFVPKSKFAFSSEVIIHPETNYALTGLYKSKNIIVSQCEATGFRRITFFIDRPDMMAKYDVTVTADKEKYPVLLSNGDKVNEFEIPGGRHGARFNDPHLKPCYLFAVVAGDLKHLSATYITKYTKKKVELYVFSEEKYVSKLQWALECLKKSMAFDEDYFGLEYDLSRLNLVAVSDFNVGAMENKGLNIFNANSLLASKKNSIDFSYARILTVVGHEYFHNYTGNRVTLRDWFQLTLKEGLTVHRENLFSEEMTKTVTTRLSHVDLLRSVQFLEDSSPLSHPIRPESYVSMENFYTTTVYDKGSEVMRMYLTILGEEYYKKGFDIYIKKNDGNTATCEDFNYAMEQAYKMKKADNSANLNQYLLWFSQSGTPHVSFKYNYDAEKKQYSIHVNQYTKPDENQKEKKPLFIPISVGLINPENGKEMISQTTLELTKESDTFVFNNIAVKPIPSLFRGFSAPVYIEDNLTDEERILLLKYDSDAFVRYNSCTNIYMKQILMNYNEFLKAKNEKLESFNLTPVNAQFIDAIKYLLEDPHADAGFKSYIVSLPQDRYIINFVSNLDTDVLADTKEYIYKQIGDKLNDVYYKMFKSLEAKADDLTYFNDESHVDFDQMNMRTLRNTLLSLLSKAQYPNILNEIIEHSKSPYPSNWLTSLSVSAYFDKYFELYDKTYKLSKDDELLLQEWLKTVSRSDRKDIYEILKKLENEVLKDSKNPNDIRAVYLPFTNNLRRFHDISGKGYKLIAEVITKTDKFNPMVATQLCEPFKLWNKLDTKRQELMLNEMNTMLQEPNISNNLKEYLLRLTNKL
The experiment in a line: P. falciparum M1AAP inhibitors, biochemical, fluorogenic H-Leu-NHMec substrate, 1536-well (AID 1445). Set-up: species or system Plasmodium falciparum 3D7, 3D7.

In data set [2] the target is T3, Fatty acid synthase (Homo sapiens, UniProt P49327). The experiment in a line: FAS thioesterase domain inhibitors, dose response, biochemical, endpoint fluorescence intensity, uHTS hits (AID 624327).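 Also: fluorescence from hydrolysis of an O-methyl fluorescein acyl ester substrate by the enzyme.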 It is filed as functional.
For data set [3], the target named is T3, Fatty acid synthase. Put plainly: FAS thioesterase domain inhibitors, dose response, biochemical, kinetic fluorescence intensity (AID 624326).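 Also: rate of fluorescence rise from hydrolysis of a fluorogenic O-methyl fluorescein ester substrate.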 It is filed as functional.
Data set [4] can be described thus: inhibitors of intracellular T. cruzi replication, confirmation, NIH3T3 host cells, beta-gal luminescence (AID 2044).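 Also: intracellular parasites grown in NIH/3T3 mouse fibroblasts as host cells; luminescent beta-galactosidase reporter signal from transgenic T. cruzi replicating inside host cells; inhibitors lower the luminescence signal.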 In kind it is functional, cell-based.
Data set [5] is described as follows: microbe, parasite or virus in culture. It is filed as functional. Particulars: Mycobacterium tuberculosis.
The nature of data set [6]: cytotoxicity toward NIH3T3 fibroblasts, dose response, counter-screen, cell-based, ATP luminescence, mouse fibroblasts (AID 2010).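 Also: cells exposed to compound for about 90 hours before reading.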 It is filed as functional.
The subject of a further data set is INS1. The experiment in a line: beta cell apoptosis inhibitors, cytokine rescue, dose response, luminescence, retest (AID 449756).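 Also: cell death triggered by IL-1 beta plus TNF-alpha plus IFN-gamma mixture; protective hits raise ATP signal compared with cytokine alone wells.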 In kind it is functional, cell-based. Particulars: Rattus norvegicus.
Data set [7] can be described thus: cells. It is filed as functional, cell-based.
Data set [8] can be described thus: cells. In kind it is functional, cell-based. The source holds these as a separate data set.
The target in the next data set is Cytochrome P450 2C19 (Homo sapiens, UniProt P33261). Put plainly: Cytochrome panel assay with activity outcomes. Panel member name: p450-cyp2c19 Compounds with AC50 equal or less than 10 uM are considered active. In kind it is functional.
The next data set has as its target Cytochrome P450 2D6 (Homo sapiens, UniProt P10635).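 Also: CYP2D6 member of a cytochrome P450 panel assay.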
A further data set concerns the target T4, Leucine aminopeptidase (Plasmodium falciparum 3D7, UniProt Q8IL11).
T4 sequence (Q8IL11 whole entry): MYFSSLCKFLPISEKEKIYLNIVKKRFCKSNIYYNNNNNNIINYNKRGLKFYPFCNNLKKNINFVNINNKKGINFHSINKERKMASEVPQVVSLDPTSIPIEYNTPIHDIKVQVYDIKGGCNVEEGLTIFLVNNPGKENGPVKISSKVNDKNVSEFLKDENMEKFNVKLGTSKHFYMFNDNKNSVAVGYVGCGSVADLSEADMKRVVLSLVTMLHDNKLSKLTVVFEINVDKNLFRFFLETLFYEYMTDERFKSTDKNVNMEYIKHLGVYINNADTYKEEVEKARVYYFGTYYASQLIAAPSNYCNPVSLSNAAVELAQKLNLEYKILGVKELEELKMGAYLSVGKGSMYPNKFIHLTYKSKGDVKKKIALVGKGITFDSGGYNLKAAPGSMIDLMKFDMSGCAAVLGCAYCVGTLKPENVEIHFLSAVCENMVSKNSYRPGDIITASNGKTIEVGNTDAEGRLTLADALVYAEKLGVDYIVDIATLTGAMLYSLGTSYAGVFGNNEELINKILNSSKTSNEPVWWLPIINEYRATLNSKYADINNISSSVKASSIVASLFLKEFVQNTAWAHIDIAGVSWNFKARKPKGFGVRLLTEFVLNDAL
Put plainly: P. falciparum M17LAP inhibitors, primary screen, biochemical, fluorogenic H-Leu-NHMec substrate, 1536-well (AID 1619). In kind it is functional.

The target of a further data set is Cytochrome P450 3A4 (Homo sapiens, UniProt P08684).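 Also: CYP3A4 tested as one member of a cytochrome P450 panel screen.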
Data set [9] in a line: HEp-2 cell cytotoxicity, dose response, cytotoxicity control for RSV inhibitor project, HTS (AID 2410). In kind it is functional. Particulars: human respiratory syncytial virus.
Data set [10] relates to Streptococcus sp. 'group A'. The experiment in a line: growth inhibition of control SK(-) GAS strain, dose response, counter-screen for streptokinase expression inhibitor project, luminescence, kanamycin, BacTiterGlo, confirmation (AID 1900). In kind it is functional, organism-based. Background: The purpose of a counterscreen is to sort out artefacts and off-target activity.

For another data set, the system named is Streptococcus. The experiment in a line: Group A Streptococcus viability loss, dose response, counter-screen for streptokinase expression inhibitor project, luminescence, BacTiterGlo (AID 1915).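 Also: potency for reduction of bacterial viability or growth.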 It is filed as functional, organism-based.
Data set [11] deals with Heat shock protein HSP 90-alpha (Homo sapiens, UniProt P07900). It is filed as functional, organism-based.

T3 sequence (P49327 whole entry, the tested form may be a part): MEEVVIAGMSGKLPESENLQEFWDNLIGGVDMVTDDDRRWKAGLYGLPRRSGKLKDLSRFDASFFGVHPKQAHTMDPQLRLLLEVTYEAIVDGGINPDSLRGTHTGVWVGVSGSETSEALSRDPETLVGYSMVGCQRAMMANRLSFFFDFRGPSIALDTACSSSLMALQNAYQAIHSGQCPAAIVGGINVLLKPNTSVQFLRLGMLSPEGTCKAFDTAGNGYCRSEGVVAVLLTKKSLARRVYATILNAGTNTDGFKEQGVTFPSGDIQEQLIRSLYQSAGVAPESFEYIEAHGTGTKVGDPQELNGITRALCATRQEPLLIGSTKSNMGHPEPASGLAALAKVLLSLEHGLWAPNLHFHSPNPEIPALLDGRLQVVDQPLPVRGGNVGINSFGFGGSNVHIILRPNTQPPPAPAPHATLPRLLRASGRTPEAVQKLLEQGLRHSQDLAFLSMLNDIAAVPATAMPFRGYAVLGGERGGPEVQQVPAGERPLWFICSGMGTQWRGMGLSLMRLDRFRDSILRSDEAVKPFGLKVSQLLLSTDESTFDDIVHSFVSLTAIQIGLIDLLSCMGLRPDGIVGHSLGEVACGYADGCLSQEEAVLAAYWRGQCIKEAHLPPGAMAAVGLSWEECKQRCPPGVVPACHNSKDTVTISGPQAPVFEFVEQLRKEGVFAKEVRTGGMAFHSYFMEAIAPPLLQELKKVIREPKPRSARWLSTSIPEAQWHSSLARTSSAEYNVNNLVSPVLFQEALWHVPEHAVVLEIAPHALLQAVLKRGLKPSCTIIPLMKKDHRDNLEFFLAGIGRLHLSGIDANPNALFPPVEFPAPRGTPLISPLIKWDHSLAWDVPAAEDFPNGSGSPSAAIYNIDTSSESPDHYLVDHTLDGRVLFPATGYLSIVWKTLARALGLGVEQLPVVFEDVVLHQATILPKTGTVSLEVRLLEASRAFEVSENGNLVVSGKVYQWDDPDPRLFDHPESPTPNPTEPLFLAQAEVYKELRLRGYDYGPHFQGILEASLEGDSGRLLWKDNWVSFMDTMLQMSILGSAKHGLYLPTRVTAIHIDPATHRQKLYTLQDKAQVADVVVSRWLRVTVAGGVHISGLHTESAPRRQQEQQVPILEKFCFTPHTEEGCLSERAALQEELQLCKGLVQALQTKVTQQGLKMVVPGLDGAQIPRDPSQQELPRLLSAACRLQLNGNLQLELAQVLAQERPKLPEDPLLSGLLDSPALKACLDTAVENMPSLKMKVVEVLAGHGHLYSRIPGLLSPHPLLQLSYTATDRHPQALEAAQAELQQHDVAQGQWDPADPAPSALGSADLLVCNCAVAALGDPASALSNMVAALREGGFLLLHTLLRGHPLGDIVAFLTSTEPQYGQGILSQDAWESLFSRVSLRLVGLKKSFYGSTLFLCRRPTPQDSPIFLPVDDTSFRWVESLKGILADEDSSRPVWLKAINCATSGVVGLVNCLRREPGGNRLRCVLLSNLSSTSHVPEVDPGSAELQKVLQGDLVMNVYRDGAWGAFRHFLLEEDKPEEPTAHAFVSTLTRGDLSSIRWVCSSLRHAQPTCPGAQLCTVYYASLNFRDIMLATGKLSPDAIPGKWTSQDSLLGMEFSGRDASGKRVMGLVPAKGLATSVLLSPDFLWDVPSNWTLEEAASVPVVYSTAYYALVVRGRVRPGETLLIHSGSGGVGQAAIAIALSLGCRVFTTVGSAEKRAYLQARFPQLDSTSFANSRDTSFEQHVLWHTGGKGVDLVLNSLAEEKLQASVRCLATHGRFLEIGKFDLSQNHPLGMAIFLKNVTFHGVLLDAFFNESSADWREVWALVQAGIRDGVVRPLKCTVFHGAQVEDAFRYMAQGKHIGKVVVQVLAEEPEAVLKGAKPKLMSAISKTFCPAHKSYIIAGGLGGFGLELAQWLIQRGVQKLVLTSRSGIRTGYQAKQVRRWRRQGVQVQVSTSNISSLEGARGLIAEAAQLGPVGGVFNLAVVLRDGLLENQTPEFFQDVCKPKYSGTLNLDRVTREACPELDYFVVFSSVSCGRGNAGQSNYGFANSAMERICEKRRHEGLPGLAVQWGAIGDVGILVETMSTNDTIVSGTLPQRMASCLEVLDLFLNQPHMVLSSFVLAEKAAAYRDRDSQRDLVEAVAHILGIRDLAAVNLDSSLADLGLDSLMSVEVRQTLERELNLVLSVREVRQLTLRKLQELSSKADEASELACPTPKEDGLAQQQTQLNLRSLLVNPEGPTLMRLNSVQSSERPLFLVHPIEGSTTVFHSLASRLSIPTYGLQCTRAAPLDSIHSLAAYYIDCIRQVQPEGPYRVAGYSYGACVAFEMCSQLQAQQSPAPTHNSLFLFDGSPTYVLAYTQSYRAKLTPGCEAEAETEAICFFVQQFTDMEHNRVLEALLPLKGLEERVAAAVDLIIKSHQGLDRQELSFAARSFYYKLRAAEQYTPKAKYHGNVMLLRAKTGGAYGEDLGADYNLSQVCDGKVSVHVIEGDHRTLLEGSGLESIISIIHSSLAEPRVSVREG
Sequence of Cytochrome P450 2C19 (P33261 whole entry): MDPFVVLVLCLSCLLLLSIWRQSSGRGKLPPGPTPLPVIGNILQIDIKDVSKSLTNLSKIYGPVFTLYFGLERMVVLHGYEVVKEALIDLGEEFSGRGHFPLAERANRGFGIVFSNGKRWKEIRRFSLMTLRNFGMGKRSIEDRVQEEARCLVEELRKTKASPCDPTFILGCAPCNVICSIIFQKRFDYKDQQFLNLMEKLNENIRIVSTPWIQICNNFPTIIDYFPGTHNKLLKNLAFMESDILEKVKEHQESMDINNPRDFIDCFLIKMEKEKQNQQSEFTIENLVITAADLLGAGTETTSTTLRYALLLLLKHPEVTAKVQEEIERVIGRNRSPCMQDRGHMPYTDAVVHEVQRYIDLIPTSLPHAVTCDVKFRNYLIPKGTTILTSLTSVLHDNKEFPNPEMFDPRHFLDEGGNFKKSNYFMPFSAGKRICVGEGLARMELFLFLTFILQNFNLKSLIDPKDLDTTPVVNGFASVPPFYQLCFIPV
Sequence of Cytochrome P450 3A4 (P08684 whole entry): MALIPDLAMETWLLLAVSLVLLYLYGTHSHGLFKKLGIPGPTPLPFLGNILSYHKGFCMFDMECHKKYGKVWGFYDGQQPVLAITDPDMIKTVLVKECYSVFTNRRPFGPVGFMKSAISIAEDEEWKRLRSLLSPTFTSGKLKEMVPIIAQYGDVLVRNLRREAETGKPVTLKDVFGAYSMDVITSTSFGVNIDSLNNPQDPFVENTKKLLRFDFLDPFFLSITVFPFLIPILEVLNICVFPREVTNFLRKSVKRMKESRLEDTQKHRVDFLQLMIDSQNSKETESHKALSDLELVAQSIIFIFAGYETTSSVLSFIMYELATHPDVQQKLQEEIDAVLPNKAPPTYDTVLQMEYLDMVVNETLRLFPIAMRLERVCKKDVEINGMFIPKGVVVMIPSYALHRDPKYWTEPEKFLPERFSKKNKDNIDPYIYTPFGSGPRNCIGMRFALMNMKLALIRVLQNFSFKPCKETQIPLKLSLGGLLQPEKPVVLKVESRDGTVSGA
Sequence of Cytochrome P450 2D6 (P10635 whole entry): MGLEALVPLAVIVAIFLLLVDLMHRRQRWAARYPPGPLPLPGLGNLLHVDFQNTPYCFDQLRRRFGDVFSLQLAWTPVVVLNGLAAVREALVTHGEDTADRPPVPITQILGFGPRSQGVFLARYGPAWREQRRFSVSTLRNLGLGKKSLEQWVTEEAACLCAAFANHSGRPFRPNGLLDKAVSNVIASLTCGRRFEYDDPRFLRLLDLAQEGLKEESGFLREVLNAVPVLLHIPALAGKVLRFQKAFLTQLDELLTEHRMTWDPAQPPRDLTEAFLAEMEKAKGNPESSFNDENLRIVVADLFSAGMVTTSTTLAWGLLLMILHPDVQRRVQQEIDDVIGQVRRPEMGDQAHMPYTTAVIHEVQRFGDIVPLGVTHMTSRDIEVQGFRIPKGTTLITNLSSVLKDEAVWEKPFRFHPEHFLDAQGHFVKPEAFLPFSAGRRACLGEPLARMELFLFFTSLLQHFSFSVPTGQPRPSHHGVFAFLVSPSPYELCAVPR

As usually defined, the EC50 is the concentration needed to bring the measured effect to its halfway point. With `COc1ccc(SC[C@H](Cc2ccccc2)N2CCN(C)CCC2=O)cc1`, the EC50 in data set [1] was 1.33 µM (active).

In general, IC50 refers to the concentration that gives 50% inhibition. For the molecule `O=C(Cn1nc2ccccc2n1)N/N=C/c1cc(Cl)cc([N+](=O)[O-])c1O`, the IC50 on Aminopeptidase N is 45.2 µM (active); at Fatty acid synthase [2], 8.31 µM (active); at Fatty acid synthase [3], 6.5 µM (active).

One may read the AC50 as the midpoint of the concentration-response curve, whichever way the signal moves. As to `Cc1ccc(-n2cccc2C(=S)N=P(N(C)C)(N(C)C)N(C)C)cc1`, the EC50 in data set [4] was 0.148 µM (active); in data set [6], > 30 µM (not active). Also, the CC50 in [5] was > 40 µM (active). Further, in the data set on INS1, the AC50 was 6.81 µM (active).

Regarding `CC1CCCN(CCCN2C(=O)C3C(C(=O)Nc4ccc(Cl)cc4)C4C=CC3(O4)C2C(=O)NC2CCCCC2)C1` (stereo not drawn), the EC50 in [1] was 0.335 µM (active).

In the case of `Oc1ccc(/C=N/NC(=S)NC2CC3CCC2C3)cc1` (stereo not drawn), the EC50 in the data set “cells [7]” and in the data set “cells [8]” was > 350 µM (not active) throughout.

For `CCCCOC(=O)NS(=O)(=O)c1sc(CC(C)C)cc1-c1ccc(Cn2c(CC)nc3c(C)cc(C)nc32)cc1`, the CC50 in [5] is 20.3 µM (active). Besides, the AC50 on Cytochrome P450 2C19 (read-out: AC50) and on Cytochrome P450 2D6 was 15.8 µM (inconclusive) throughout.

On to `Cc1ccc(CNc2ccc3c(c2)nc(C)n3C)cc1`, for which the EC50 in the data set “cells [7]” is > 350 µM (not active); in the data set “cells [8]” it was 34.6 µM (active).

Turning to `O=C(O)c1ccc(/C=C/c2ccc3cccc(O)c3n2)cc1`, the IC50 on Leucine aminopeptidase was 55.5 µM (active); at Aminopeptidase N, 13 µM (active).

In the case of `O=c1cc(CSc2ccccc2)[nH]c(=S)[nH]1`, the IC50 on Leucine aminopeptidase was 12.5 µM (active). The AC50 entry is “inconclusive” at Cytochrome P450 2C19 and 28.2 µM (inconclusive) on Cytochrome P450 3A4.

As to `Cc1nc(Cl)c(Cl)n1CCOc1ccccc1`, in data set [9], the CC50 was 20.9 µM (active). Moreover, in data set [1], the EC50 was 5.31 µM (active).

On to `COc1ccc(Nc2nnc(SCC(=O)N3CCCC3)s2)cc1`, for which the IC50 on Leucine aminopeptidase was 10.1 µM (active).

With `O=C(CN1C(=O)C2C3CC(C(Br)C3Br)C2C1=O)N1CCOCC1` (stereo not drawn), the IC50 on Leucine aminopeptidase was 47.5 µM (active).

As for `O=C(O)c1ccc(N/N=C/c2ccc(-c3cccc(Cl)c3)o2)cc1`, the EC50 in data set [10] is 3.86 µM (active); in the data set with Streptococcus, 10.7 µM (active); in data set [1], 4.73 µM (active). The AC50 in data set [11] was 8 µM (active).

As to `COc1ccc2c(c1)OC[C@H]1[C@H]2N2C(=O)c3cc(OC)ccc3NC(=O)[C@@]2(C)[C@H]1c1ccccc1`, the AC50 in [11] is 16.1 µM (active). Moreover, the IC50 at Fatty acid synthase [2] was 12.7 µM (active); at Fatty acid synthase [3] it was 13.7 µM (active).

Turning to `O=C(O)C1CC=CCC1C(=O)Nc1cccc(F)c1` (stereo not drawn), the concentration for half-maximal inhibition (IC50) at Leucine aminopeptidase is 14.6 µM (active).

Consider `c1ccc2c(c1)CCN(c1nc3cc4c(cc3s1)OCCO4)C2`, for which the CC50 in [5] was > 40 µM (active).

As for `Cc1ccc(C(CNS(=O)(=O)c2ccc([N+](=O)[O-])cc2)N2CCN(C)CC2)cc1` (stereo not drawn), the EC50 in data set [4] is 1.65 µM (active); in [6], > 60 µM (not active); in data set [1], 0.0093 µM (active).

With `O=C(NCCCN1CCN(c2ccccc2F)CC1)Nc1ccccc1[N+](=O)[O-]`, the EC50 in “cells [7]” and in the data set “cells [8]” was > 350 µM (not active) in each case.

With `CCCOc1ccc(C(=O)NC(=S)NCc2cccnc2)cc1`, the CC50 in [5] is > 40 µM (active).

Take `CC1=NNC(=O)C1CCC(=O)N/N=C/c1ccc(Cl)cc1` (stereo not drawn): at Leucine aminopeptidase, the IC50 was 52.6 µM (active).

Take `CCOC(=O)c1c(S(=O)(=O)N2CCC(C)CC2)c(C)n(C)c1C`: the 50% effective concentration (EC50) in the data set “cells [7]” and in the data set “cells [8]” was > 350 µM (not active) throughout.
